Assay results reported in US20170305922A1, “CARM1 INHIBITORS AND USES THEREOF” (Epizyme, Inc., priority 2014, published 2017).

Biological target: T1, Human CARM1 (PRMT4) (Homo sapiens, UniProt Q86X55)
T1 construct: Flag-CARM1-His was eluted with 200 ug/ml FLAG peptide in buffer A; made in house; host or cells: HEK 293F cells infected with recombinant baculovirus (pFastBacMam)
T1 sequence (Q86X55 1-585 isoform Q86X55-1): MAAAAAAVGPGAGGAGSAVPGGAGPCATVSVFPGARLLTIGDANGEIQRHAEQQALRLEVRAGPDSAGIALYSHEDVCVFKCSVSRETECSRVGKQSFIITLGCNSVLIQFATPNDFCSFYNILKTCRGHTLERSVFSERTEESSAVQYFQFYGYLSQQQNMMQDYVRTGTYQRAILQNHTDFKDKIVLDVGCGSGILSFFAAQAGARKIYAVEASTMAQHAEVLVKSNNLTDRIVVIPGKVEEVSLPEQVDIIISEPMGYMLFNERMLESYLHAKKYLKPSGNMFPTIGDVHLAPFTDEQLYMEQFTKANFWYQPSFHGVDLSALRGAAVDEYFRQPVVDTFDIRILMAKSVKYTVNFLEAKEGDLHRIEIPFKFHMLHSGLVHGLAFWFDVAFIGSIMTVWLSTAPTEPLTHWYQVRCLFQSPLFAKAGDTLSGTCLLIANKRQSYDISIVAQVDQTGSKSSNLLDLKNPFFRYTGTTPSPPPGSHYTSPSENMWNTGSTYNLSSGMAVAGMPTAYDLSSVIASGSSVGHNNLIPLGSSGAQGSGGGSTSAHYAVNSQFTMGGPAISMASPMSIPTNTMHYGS
Assay: CARM1 enzyme assay on peptide substrates (3H-SAM Flashplate)
Conditions: Biochemical assay; CARM1 0.25 nM, 3H-SAM 30 nM, peptide 250 nM; read-out: Biochem IC50
From the text: S-adenosylmethionine (SAM), S-adenosylhomocysteine (SAH), bicine, Tween20, dimethylsulfoxide (DMSO), bovine skin gelatin (BSG), sodium butyrate and Tris(2-carboxyethyl)phosphine hydrochloride solution (TCEP) were purchased from Sigma-Aldrich at the highest level of purity possible. ^3H-SAM was purchase from American Radiolabeled Chemicals with a specific activity of 80 Ci/mmol. 384-well streptavidin Flashplates were purchased from PerkinElmer.
Peptide representative of human histone H3 residues 16-30 was synthesized with an N-terminal linker-affinity tag motif and a C-terminal amide cap by 21st Century Biochemicals. […] The sequence was Biot-Ahx-[…]-amide and contained a monomethylated arginine at position 26 (SEQ ID NO.:1).
The gene sequence encoding isoform1 containing a deletion of amino acids 539-561 was amplified subsequently and subcloned into pFastBacMam (Viva Biotech).
Recombinant baculovirus were generated according to Bac-to-Bac kit instructions (Life Technologies). Protein over-expression was accomplished by infecting exponentially growing HEK 293F cell culture at 1.3×10^6 cell/ml with virus (MOI=10) in the presence of 8 mM sodium butyrate. Infections were carried out at 37° C. for 48 hours, harvested by centrifugation, and stored at −80° C. for purification.
Column was washed with 500 mM NaCl in buffer A and Flag-CARM1-His was eluted with 200 ug/ml FLAG peptide in buffer A. Pooled fractions were dialyzed in 20 mM Tris, 150 mM NaCl, 5% glycerol and 1 mM DTT, pH 7.8.
The assays were all performed in a buffer consisting of 20 mM Bicine (pH=7.6), 1 mM TCEP, 0.005% BSG, and 0.002% Tween 20, prepared on the day of use. Compounds in 100% DMSO (1 ul) were spotted into a polypropylene 384-well V-bottom plates (Greiner) using a Platemate Plus outfitted with a 384-channel head (Thermo Scientific). DMSO (1 ul) was added to Columns 11, 12, 23, 24, rows A-H for the maximum signal control and 1 ul of SAH, a known product and inhibitor of CARM1, was added to columns 11, 12, 23, 24, rows I-P for the minimum signal control. A cocktail (40 ul) containing the CARM1 enzyme was added by Multidrop Combi (Thermo-Fisher). The compounds were allowed to incubate with CARM1 for 30 min at room temperature, then a cocktail (10 ul) containing ^3H-SAM and peptide was added to initiate the reaction (final volume=51 ul). The final concentrations of the components were as follows: CARM1 was 0.25 nM, ^3H-SAM was 30 nM, peptide was 250 nM, SAH in the minimum signal control wells was 1 mM, and the DMSO concentration was 2%. The assays were stopped by the addition of non-radiolabeled SAM (10 ul) to a final concentration of 300 uM, which dilutes the ^3H-SAM to a level where its incorporation into the peptide substrate is no longer detectable. 50 ul of the reaction in the 384-well polypropylene plate was then transferred to a 384-well Flashplate and the biotinylated peptides were allowed to bind to the streptavidin surface for at least 1 hour before being washed once with 0.1% Tween20 in a Biotek ELx405 plate washer. The plates were then read in a PerkinElmer TopCount plate reader to measure the quantity of ^3H-labeled peptide bound to the Flashplate surface, measured as disintegrations per minute (dpm) or alternatively, referred to as counts per minute (cpm).
where dpm=disintegrations per minute, cmpd=signal in assay well, and min and max are the respective minimum and maximum signal controls.
where top and bottom are the normally allowed to float, but may be fixed at 100 or 0 respectively in a 3-parameter fit. The Hill Coefficient normally allowed to float but may also be fixed at 1 in a 3-parameter fit. Y is the % inhibition and X is the compound concentration.

SMILES	IC50 [nM]
CNC[C@@H](O)COc1ccc(Cl)c(-c2nc(-c3c(C)noc3C)c(C)c(N3CC4(C3)CN(S(C)(=O)=O)C4)n2)c1 [Example 42]	10.4
CNC[C@@H](O)COc1ccc(Cl)c(-c2nc(-c3c(C)noc3C)c(C)c(N3CC4(CN(C(=O)OC)C4)C3)n2)c1 [Example 43]	10
CNC[C@@H](O)COc1ccc(Cl)c(-c2nc(-c3c(C)noc3C)c(C)c(N3CC4(CCN(CC(F)(F)F)CC4)C3)n2)c1 [Example 46]	17.4
CNC[C@@H](O)COc1ccc(Cl)c(-c2nc(-c3c(C)noc3C)c(C)c(N3Cc4c(n5c(nc4=O)CCC5)C3)n2)c1 [Example 47]	6.3
CNC[C@@H](O)COc1ccc(Cl)c(-c2nc(-c3c(C)noc3C)c(C)c(N3CC4(CCN(S(C)(=O)=O)C4)C3)n2)c1 [Example 49]	7.7
CNC[C@@H](O)COc1ccc(Cl)c(-c2nc(-c3c(C)noc3C)c(C)c(N3CC4(CCN(C(C)=O)CC4)C3)n2)c1 [Example 51]	10.8
CNC[C@@H](O)COc1ccc(Cl)c(-c2nc(-c3c(C)noc3C)c(C)c(N3CC4(CCN(S(C)(=O)=O)CC4)C3)n2)c1 [Example 52]	7.3

The remaining lines, values ahead:

IC50 [nM]	SMILES
2.9	CNC[C@@H](O)COc1ccc(Cl)c(-c2nc(-c3c(C)noc3C)c(C)c(N3Cc4cnc(C)cc4C3)n2)c1 [Example 44]
11.9	CNC[C@@H](O)COc1ccc(Cl)c(-c2nc(-c3c(C)noc3C)c(C)c(N3CC4(CCN(CC(F)(F)F)C4)C3)n2)c1 [Example 45]
12.7	CNC[C@@H](O)COc1ccc(Cl)c(-c2nc(-c3c(C)noc3C)c(C)c(N3CC4(CCN(C(=O)N(C)C)C4)C3)n2)c1 [Example 48]
8.8	CNC[C@@H](O)COc1ccc(Cl)c(-c2nc(-c3c(C)noc3C)c(C)c(N3CC4(CCN(C5COC5)C4)C3)n2)c1 [Example 50]

System: asymmetric di-methyl PABP1 in RKO cells
Assay: RKO methylation assay: In Cell Western (ICW) for asymmetric di-methyl PABP1 (PABP1me2a)
Conditions: Homo sapiens, RKO, 48 h, Cellular-based (PABP1me2a) ICW (In Cell Western) assay
From the text: RKO adherent cells were purchased from ATCC (American Type Culture Collection), Manassas, Va., USA. DMEM/Glutamax medium, penicillin-streptomycin, heat inactivated fetal bovine serum, 0.05% trypsin and D-PBS were purchased from Life Technologies, Grand Island, N.Y., USA. Odyssey blocking buffer, 800CW goat anti-rabbit IgG (H+L) antibody, and Licor Odyssey infrared scanner were purchased from Licor Biosciences, Lincoln, Nebr., USA. Asymmetric di-methyl PABP1 antibody was purchased from Cell Signaling Technology, Danvers, Mass., USA. Methanol was purchased from VWR, Franklin, Mass., USA. 10% Tween 20 was purchased from KPL, Inc., Gaithersburg, Md., USA. Paraformaldehyde (PFA) was purchased from EM Sciences. DRAQ5 was purchased from Biostatus Limited, Leicestershire, UK.
RKO adherent cells were maintained in growth medium (DMEM/Glutamax medium supplemented with 10% v/v heat inactivated fetal bovine serum and 100 units/mL penicillin-streptomycin) and cultured at 37° C. under 5% CO2.
Cell treatment, In Cell Western (ICW) for detection of asymmetric di-methyl PABP1 and DNA content: RKO cells were seeded in assay medium at a concentration of 30,000 cells per mL to a poly-D-lysine coated 384 well culture plate (BD Biosciences 356697) with 50 μL per well. Compound (100 nL) from a 96-well source plate was added directly to 384 well cell plate. Plates were incubated at 37° C., 5% CO2 for 48 hours. After two days of incubation, plates were brought to room temperature outside of the incubator for ten minutes and blotted on paper towels to remove cell media. Cells were fixed for 20 minutes at room temperature by adding 50 ul of 8% PFA followed by aspiration of supernatant with the Biotek EL406 plate washer. Cells were then permeabilized by addition of 50 μL of ice cold 100% methanol directly to each well and incubated for 30 min at room temperature. After 30 min, plates were transferred to a Biotek EL406 plate washer and washed 2 times with 100 μL per well of wash buffer (1×PBS). Next 60 μL per well of Odyssey blocking buffer (Odyssey Buffer with 0.1% Tween 20 (v/v)) were added to each plate and incubated 1 hour at room temperature. Blocking buffer was removed and 20 μL per well of primary antibody was added (asymmetric-methyl PABP1) diluted 1:400 in Odyssey buffer with 0.1% Tween 20 (v/v)) and plates were incubated overnight (16 hours) at 4° C. Plates were washed 5 times with 100 μL per well of wash buffer. Next 20 μL per well of secondary antibody was added (1:800 800CW goat anti-rabbit IgG (H+L) antibody, 1:2000 DRAQ5 in Odyssey buffer with 0.1% Tween 20 (v/v)) and incubated for 1 hour at room temperature. The plates were washed 5 times with 100 μL per well wash buffer then 2 times with 100 μL per well of water. Plates were allowed to dry at room temperature then imaged on the Licor Odyssey machine which measures integrated intensity at 700 nm and 800 nm wavelengths. Both 700 and 800 channels were scanned.
First, the ratio for each well was determined by:
Each plate included fourteen control wells of DMSO only treatment (minimum inhibition) as well as fourteen control wells for maximum inhibition treated with 20 μM of a reference compound. The average of the ratio values for each control type was calculated and used to determine the percent […] for each test well in the plate. Reference compound was serially diluted three-fold in DMSO for a total of nine test concentrations, beginning at 20 μM.
Percent inhibition was determined and IC50 curves were generated using triplicate wells per concentration of compound.

SMILES	IC50 [nM]
CNC[C@@H](O)COc1ccc(Cl)c(-c2nc(-c3c(C)noc3C)c(C)c(N3CC4(C3)CN(S(C)(=O)=O)C4)n2)c1 [Example 42]	406
CNC[C@@H](O)COc1ccc(Cl)c(-c2nc(-c3c(C)noc3C)c(C)c(N3CC4(CN(C(=O)OC)C4)C3)n2)c1 [Example 43]	84
CNC[C@@H](O)COc1ccc(Cl)c(-c2nc(-c3c(C)noc3C)c(C)c(N3CC4(CCN(CC(F)(F)F)CC4)C3)n2)c1 [Example 46]	35
CNC[C@@H](O)COc1ccc(Cl)c(-c2nc(-c3c(C)noc3C)c(C)c(N3Cc4c(n5c(nc4=O)CCC5)C3)n2)c1 [Example 47]	> 20000
CNC[C@@H](O)COc1ccc(Cl)c(-c2nc(-c3c(C)noc3C)c(C)c(N3CC4(CCN(S(C)(=O)=O)C4)C3)n2)c1 [Example 49]	399
CNC[C@@H](O)COc1ccc(Cl)c(-c2nc(-c3c(C)noc3C)c(C)c(N3CC4(CCN(C(C)=O)CC4)C3)n2)c1 [Example 51]	356
CNC[C@@H](O)COc1ccc(Cl)c(-c2nc(-c3c(C)noc3C)c(C)c(N3CC4(CCN(S(C)(=O)=O)CC4)C3)n2)c1 [Example 52]	230

The next lines start with the values.

IC50 [nM]	SMILES
27	CNC[C@@H](O)COc1ccc(Cl)c(-c2nc(-c3c(C)noc3C)c(C)c(N3Cc4cnc(C)cc4C3)n2)c1 [Example 44]
40	CNC[C@@H](O)COc1ccc(Cl)c(-c2nc(-c3c(C)noc3C)c(C)c(N3CC4(CCN(CC(F)(F)F)C4)C3)n2)c1 [Example 45]
238	CNC[C@@H](O)COc1ccc(Cl)c(-c2nc(-c3c(C)noc3C)c(C)c(N3CC4(CCN(C(=O)N(C)C)C4)C3)n2)c1 [Example 48]
155	CNC[C@@H](O)COc1ccc(Cl)c(-c2nc(-c3c(C)noc3C)c(C)c(N3CC4(CCN(C5COC5)C4)C3)n2)c1 [Example 50]
